Experimental data from ChEMBL document CHEMBL1157574 (J Med Chem, 2010).

What was measured:
Aromatase [1] = target: T1, Aromatase (Homo sapiens, UniProt P11511)
T1 sequence (P11511 whole entry): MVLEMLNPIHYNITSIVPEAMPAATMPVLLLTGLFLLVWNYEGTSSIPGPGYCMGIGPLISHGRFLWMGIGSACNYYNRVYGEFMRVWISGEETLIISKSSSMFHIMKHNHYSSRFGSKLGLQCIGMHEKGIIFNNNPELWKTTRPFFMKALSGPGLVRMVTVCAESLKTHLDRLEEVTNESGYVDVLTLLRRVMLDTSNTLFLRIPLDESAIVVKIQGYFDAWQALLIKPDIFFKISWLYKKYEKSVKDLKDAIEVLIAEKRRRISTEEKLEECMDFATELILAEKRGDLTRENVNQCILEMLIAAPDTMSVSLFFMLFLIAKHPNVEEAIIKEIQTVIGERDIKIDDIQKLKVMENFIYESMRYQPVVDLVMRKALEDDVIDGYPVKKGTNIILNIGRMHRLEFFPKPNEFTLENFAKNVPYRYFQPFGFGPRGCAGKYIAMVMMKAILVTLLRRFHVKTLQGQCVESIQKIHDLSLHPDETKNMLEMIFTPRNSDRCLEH
Description: Inhibition of aromatase in human JEG3 cells by scintillation spectrometry

Aromatase [2] = target: T1, Aromatase; assay: Inhibition of aromatase in human JEG3 cells at 0.1 uM by scintillation spectrometry; format: cell-based; conditions: JEG-3, human
Aromatase [3] = target: T1, Aromatase; assay: Inhibition of aromatase in human JEG3 cells at 1 uM by scintillation spectrometry; format: cell-based, JEG-3; conditions: for inhibition (INH): human, jeg-3, 1 µM
[4] = target: T2, Steryl-sulfatase (Homo sapiens) (UniProt P08842); assay: Inhibition of steroid sulfatase in human JEG3 cells at 10 uM by scintillation spectrometry; format: cell-based; conditions: JEG-3
T2 sequence (whole entry): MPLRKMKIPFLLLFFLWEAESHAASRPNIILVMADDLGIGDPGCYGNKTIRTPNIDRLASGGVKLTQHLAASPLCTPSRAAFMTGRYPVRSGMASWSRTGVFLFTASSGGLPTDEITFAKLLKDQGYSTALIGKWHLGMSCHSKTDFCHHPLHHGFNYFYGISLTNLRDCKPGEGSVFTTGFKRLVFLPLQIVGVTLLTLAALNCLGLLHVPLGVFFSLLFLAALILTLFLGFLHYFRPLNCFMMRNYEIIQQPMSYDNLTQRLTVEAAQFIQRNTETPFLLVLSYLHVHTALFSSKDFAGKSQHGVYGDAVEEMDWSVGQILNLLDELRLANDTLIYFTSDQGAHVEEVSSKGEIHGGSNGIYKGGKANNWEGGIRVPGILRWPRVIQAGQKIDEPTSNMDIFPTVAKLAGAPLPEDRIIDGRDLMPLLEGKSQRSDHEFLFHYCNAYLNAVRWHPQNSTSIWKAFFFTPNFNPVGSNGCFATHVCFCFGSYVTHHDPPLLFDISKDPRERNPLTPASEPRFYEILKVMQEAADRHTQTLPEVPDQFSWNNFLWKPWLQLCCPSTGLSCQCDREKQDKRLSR

Rattus norvegicus [5] = assay: Inhibition of steroid sulfatase in PMSG-pretreated Wistar rat at 1 mg/kg, po administered after 3 days of PMSG challenge by liquid scintillation spectrometry; format: functional
Rattus norvegicus [6] = assay: Inhibition of aromatase in Wistar rat assessed as inhibition of PMSG-induced plasma E2 level at 1 mg/kg, po administered after 3 days of PMSG challenge by radioimmunoassay; format: functional
Steryl-sulfatase = target: T3, Steryl-sulfatase (Homo sapiens, UniProt P08842); assay: Inhibition of steroid sulfatase in human JEG3 cells by scintillation spectrometry; format: cell-based, JEG-3
T3 sequence (P08842 whole entry): T2 sequence (whole entry)

Rattus norvegicus [7] = assay: Inhibition of aromatase in PMSG-pretreated Wistar rat at 1 mg/kg, po administered after 3 days of PMSG challenge by radioimmunoassay
Rattus norvegicus [8] = assay: Estrogenic toxicity in Wistar rat assessed as increase in uterine weight at 10 mg/kg, po for 4 days; format: organism-based; design: dose 10 mg/kg, route oral; conditions: in vivo, 96 h
Aromatase [9] = target: T1, Aromatase; assay: Inhibition of aromatase in human JEG3 cells at 10 uM by scintillation spectrometry; format: cell-based; conditions: JEG-3, human
Rattus norvegicus [10] = assay: Inhibition of steroid sulfatase in PMSG-pretreated Wistar rat liver at 0.1 mg/kg, po administered after 3 days of PMSG challenge by liquid scintillation spectrometry
Rattus norvegicus [11] = assay: Inhibition of aromatase in Wistar rat assessed as inhibition of PMSG-induced plasma E2 level at 0.1 mg/kg, po administered after 3 days of PMSG challenge by radioimmunoassay; format: functional
Rattus norvegicus [12] = assay: Inhibition of aromatase in PMSG-pretreated Wistar rat plasma at 0.1 mg/kg, po administered after 3 days of PMSG challenge by radioimmunoassay; format: functional

Row | IC50 (Aromatase [1]) | IC50 (Steryl-sulfatase) | SMILES | other results
1 | 112 nM |  | N#Cc1cc(Cn2cncn2)cc(-c2ccc(O)cc2)c1 | 
2 | 0.1 nM |  | CC(C)(C#N)c1cc(Cn2cncn2)cc(-c2ccc(O)c(Cl)c2)c1 | 
3 |  |  | N#Cc1ccc(-c2ccccc2)cc1Cn1cncn1 | inhibition at 0.1 µM (Aromatase [2]): 23.9%; inhibition (INH) (Aromatase [3]): 68.8%
4 | 380 nM |  | N#Cc1cc(Cn2cncn2)ccc1-c1ccc(O)c(Cl)c1 | 
5 |  |  | Oc1ccc(-c2cccc(Cn3cncn3)c2)cc1Cl | inhibition at 0.1 µM (Aromatase [2]): 36.6%; inhibition (INH) (Aromatase [3]): 85.3%
6 | 24 nM |  | N#Cc1cc(Cn2cncn2)cc(-c2ccc(O)c(Cl)c2)c1 | 
7 | 1.7 nM |  | N#Cc1ccc(Cn2cncn2)c(-c2ccccc2)c1 | 
8 | 0.3 nM |  | CC(C)(C#N)c1cc(Cn2cncn2)cc(-c2ccc(OS(N)(=O)=O)c(Cl)c2)c1 | inhibition [4]: 68.2%
9 | 2 nM | 35 nM | N#Cc1ccc(Cn2cncn2)cc1-c1ccc(OS(N)(=O)=O)cc1 | inhibition in vivo at 1 mg/kg (Rattus norvegicus [5]): 77%; plasma estradiol (E2) level (Rattus norvegicus [6]): 124 pg/mL; inhibition in vivo at 1 mg/kg (Rattus norvegicus [7]): 63%
10 | 1.9 nM | > 10000 nM | N#Cc1ccc(Cn2cncn2)c(-c2ccc(OS(N)(=O)=O)c(Cl)c2)c1 | 
11 | 0.5 nM | > 10000 nM | CN(C)S(=O)(=O)Oc1ccc(-c2cc(Cn3cncn3)ccc2C#N)cc1 | 
12 | 0.2 nM |  | N#Cc1ccc(Cn2cncn2)cc1-c1ccc(O)cc1 | inhibition in vivo at 1 mg/kg (Rattus norvegicus [5]): 10%; plasma estradiol (E2) level (Rattus norvegicus [6]): 94 pg/mL; inhibition in vivo at 1 mg/kg (Rattus norvegicus [7]): 72%
13 | 0.22 nM |  | N#Cc1ccc(Cn2cncn2)cc1-c1ccc(Cl)c(O)c1 | 
14 |  |  | N#Cc1ccc(Cn2cncn2)cc1-c1ccc(O)c(Cl)c1 | inhibition in vivo at 1 mg/kg (Rattus norvegicus [5]): 5%; plasma estradiol (E2) level (Rattus norvegicus [6]): 297 pg/mL; inhibition in vivo at 1 mg/kg (Rattus norvegicus [7]): 11%
15 |  |  | Oc1ccc(-c2cccc(Cn3cncn3)c2)cc1 | inhibition at 0.1 µM (Aromatase [2]): 24.6%; inhibition (INH) (Aromatase [3]): 79%
16 |  | > 10000 nM | N#Cc1ccc(-c2cccc(OS(N)(=O)=O)c2)cc1Cn1cncn1 | inhibition at 1 µM (Aromatase [3]; JEG-3, human): 63.4%
17 | 2.4 nM | > 10000 nM | CN(C)S(=O)(=O)Oc1ccc(-c2cc(Cn3cncn3)ccc2C#N)cc1Cl | 
18 |  |  | N#Cc1ccc(-c2ccc(O)cc2)cc1Cn1cncn1 | inhibition at 0.1 µM (Aromatase [2]): 35.1%; inhibition (INH) (Aromatase [3]): 76.4%
19 | 70 nM | 160 nM | NS(=O)(=O)Oc1ccc(-c2cccc(Cn3cncn3)c2)cc1Cl | 
20 | 74 nM |  | N#Cc1ccc(-c2ccc(O)c(Cl)c2)cc1Cn1cncn1 | 
21 | 6 nM |  | CC(C)(C#N)c1cc(Cn2cncn2)cc(-c2ccc(O)cc2)c1 | 
22 | 280 nM | > 10000 nM | N#Cc1cc(Cn2cncn2)cc(-c2ccc(OS(N)(=O)=O)cc2)c1 | 
23 | 14.4 nM |  | N#Cc1ccc(-c2cccc(O)c2)cc1Cn1cncn1 | 

Row | IC50 (Aromatase [1]) | IC50 (Steryl-sulfatase) | SMILES | other results
24 | 0.2 nM |  | N#Cc1ccc(Cn2cncn2)cc1-c1ccccc1 | 
25 | 4.6 nM |  | N#Cc1cc(Cn2cncn2)ccc1-c1ccccc1 | 
26 | 146 nM | 32.6 nM | N#Cc1ccc(-c2ccc(OS(N)(=O)=O)c(Cl)c2)cc1Cn1cncn1 | 
27 | 284 nM | 28.6 nM | N#Cc1cc(Cn2cncn2)ccc1-c1ccc(OS(N)(=O)=O)cc1 | 
28 | 52 nM |  | N#Cc1ccc(-c2cc(C#N)cc(Cn3cncn3)c2)cc1 | 
29 | 920 nM |  | N#Cc1cc(Cn2cncn2)ccc1-c1ccc(O)cc1 | 
30 |  |  | CCCN1C(=O)CC2C3CCc4cc(OS(N)(=O)=O)ccc4C3CC[C@]2(C)C1=O (stereo partly specified) | inhibition in vivo at 1 mg/kg (Rattus norvegicus [5]): 99%
31 |  | 5.5 nM | N#Cc1ccc(Cn2cncn2)cc1-c1ccc(OS(N)(=O)=O)c(Cl)c1 | Activity (Rattus norvegicus [8]): Non-toxic; inhibition in vivo at 1 mg/kg (Rattus norvegicus [5]): 92%; plasma estradiol (E2) level (Rattus norvegicus [6]): 132 pg/mL; inhibition in vivo at 1 mg/kg (Rattus norvegicus [7]): 60%
32 | 19 nM |  | N#Cc1cc(Cn2cncn2)cc(-c2ccc(F)cc2)c1 | 
33 |  |  | N#Cc1ccc(N(Cc2ccc(OS(N)(=O)=O)c(Br)c2)n2cnnc2)cc1 | Activity (Rattus norvegicus [8]): Non-toxic
34 | 17.5 nM | > 10000 nM | CC(C)(C#N)c1cc(Cn2cncn2)cc(-c2ccc(OS(N)(=O)=O)cc2)c1 | 
35 |  | 16.3 nM | N#Cc1ccc(-c2ccc(OS(N)(=O)=O)cc2)c(C#N)c1 | inhibition at 10 µM (Aromatase [9]): 47%
36 | 210 nM |  | c1ccc(-c2cccc(Cn3cncn3)c2)cc1 | 
37 | 0.22 nM |  | N#Cc1ccc(Cn2cncn2)cc1-c1cccc(Cl)c1 | 
38 | 571 nM | 29 nM | N#Cc1cc(Cn2cncn2)ccc1-c1ccc(OS(N)(=O)=O)c(Cl)c1 | 
39 | 0.5 nM |  | CC(C)(C#N)c1cc(Cn2cncn2)cc(-c2ccccc2)c1 | 
40 | 29.3 nM |  | N#Cc1cc(Cn2cncn2)cc(-c2ccccc2)c1 | 
41 |  |  | N#Cc1ccc(C(c2ccc(C#N)cc2)n2cncn2)cc1 [LETROZOLE] | inhibition in vivo at 0.1 mg/kg (Rattus norvegicus [10]): 0%; Activity (Rattus norvegicus [11]): 49 pg/mL; inhibition in vivo at 0.1 mg/kg (Rattus norvegicus [12]): 85%
42 | 0.8 nM |  | N#Cc1ccc(Cn2cncn2)c(-c2ccc(O)c(Cl)c2)c1 | 
43 | 275 nM | 5500 nM | NS(=O)(=O)Oc1ccc(-c2cccc(Cn3cncn3)c2)cc1 | 
44 | 0.35 nM | > 10000 nM | N#Cc1ccc(Cn2cncn2)cc1-c1ccc(Cl)c(OS(N)(=O)=O)c1 | 
45 | 80 nM | 6330 nM | N#Cc1cc(Cn2cncn2)cc(-c2ccc(OS(N)(=O)=O)c(Cl)c2)c1 | 
46 | 176 nM | 140 nM | N#Cc1ccc(-c2ccc(OS(N)(=O)=O)cc2)cc1Cn1cncn1 | 
